≈ marks a conversion by molar mass, not a printed value.
What was measured:
N. gonorrhoeae [1] = test: MIC against N. gonorrhoeae clinical isolates, normal and CO2 conditions; type: cell-based; conditions: Neisseria gonorrhoeae
Procedure: (§1) These tests were performed in normal culture conditions with standard CO2 levels and in CO2 (5% in incubator) conditions.

ATCC strain 700825 = test: MICs against ATCC strain 700825; type: cell-based, N. gonorrhoeae; conditions: Neisseria gonorrhoeae
Procedure: as §1

N. gonorrhoeae [2] = test: Post-antibiotic effect (PAE); type: cell-based; conditions: after exposure to 10×MIC for 1 hour
N. gonorrhoeae [3] = test: Multi-step resistance selection; type: cell-based; conditions: after 9 passages
Text: Frequency of mutation—multi-step mutation—We investigated N. gonorrhoeae's ability to develop resistance to CAIs using the multi-step resistance selection experiment^58.
N. gonorrhoeae cultures that grew at the highest concentrations of the compound are used as an inoculum for the subsequent culture.

[4] = N. gonorrhoeae 178, Non CO2 environment
[5] = N. gonorrhoeae 178, normal growth environment (with CO2)
[6] = N. gonorrhoeae 181, Non CO2 environment
[7] = N. gonorrhoeae 181, normal growth environment (with CO2)
[8] = N. gonorrhoeae 194, Non CO2 environment
[9] = N. gonorrhoeae 194, normal growth environment (with CO2)

Structure (SMILES) | MIC (N. gonorrhoeae [1]; [4]) [µg/mL] | MIC (N. gonorrhoeae [1]; [5]) [µg/mL] | MIC (N. gonorrhoeae [1]; [6]) [µg/mL] | MIC (N. gonorrhoeae [1]; [7]) [µg/mL] | MIC (N. gonorrhoeae [1]; [8]) [µg/mL] | MIC (N. gonorrhoeae [1]; [9]) [µg/mL] | MIC (ATCC strain 700825; ATCC700825, In CO2) [µg/mL] | MIC (ATCC strain 700825; ATCC700825, In air) [µg/mL] | PAE (N. gonorrhoeae [2]; Ng 181) [h] | PAE (N. gonorrhoeae [2]; Ng 186) [h] | PAE (N. gonorrhoeae [2]; Ng 194) [h] | PAE (N. gonorrhoeae [2]; Ng 198) [h] | PAE (N. gonorrhoeae [2]; clinical isolates of N. gonorrhoeae) [h] | increase in MIC (N. gonorrhoeae [3]) [fold]
NS(=O)(=O)c1nnc(NC(=O)CN2CCOCC2)s1 [CAI 0031] | 32 (≈ 104 µM) | 64 (≈ 208 µM) | > 64 | > 64 | 64 (≈ 208 µM) | > 64 | 128 (≈ 416 µM) | 32 (≈ 104 µM) |  |  |  |  |  | 
NS(=O)(=O)c1nnc(NC(=O)C2CCCC2)s1 [CAI 0023] | 8 (≈ 28.9 µM) | 32 (≈ 116 µM) | 8 (≈ 28.9 µM) | 64 (≈ 232 µM) | 8 (≈ 28.9 µM) | 64 (≈ 232 µM) |  |  |  |  |  |  |  | 
NS(=O)(=O)c1nnc(NC(=O)C2CC2)s1 [CAI 0020] | 2 (≈ 8.06 µM) | 64 (≈ 258 µM) | 2 (≈ 8.06 µM) | 64 (≈ 258 µM) | 4 (≈ 16.1 µM) | > 64 |  |  |  |  |  |  |  | 
CC[C@H]1OC(=O)[C@H](C)[C@@H](O[C@H]2C[C@@](C)(OC)[C@@H](O)[C@H](C)O2)[C@H](C)[C@@H](O[C@@H]2O[C@H](C)C[C@H](N(C)C)[C@H]2O)[C@](C)(O)C[C@@H](C)CN(C)[C@H](C)[C@@H](O)[C@]1(C)O [Azithromycin] | 0.25 (≈ 0.334 µM) | 1 (≈ 1.34 µM) | > 128 | > 128 | 0.25 (≈ 0.334 µM) | 0.5 (≈ 0.668 µM) |  |  | 8 | 8 | 8 | 8 | 8 | 
CC(C)(C)CC(=O)Nc1nnc(S(N)(=O)=O)s1 [CAI 0028] | 8 (≈ 28.7 µM) | 32 (≈ 115 µM) | 16 (≈ 57.5 µM) | 64 (≈ 230 µM) | 32 (≈ 115 µM) | 64 (≈ 230 µM) |  |  |  |  |  |  |  | 
NS(=O)(=O)c1nnc(NC(=O)CN2CCCC2)s1 [CAI 0037] | > 64 | > 64 | > 64 | > 64 | > 64 | > 64 |  |  |  |  |  |  |  | 
CC(=O)Nc1ccc(S(N)(=O)=O)cc1 [CAI 0030] | 8 (≈ 37.3 µM) | > 64 | 32 (≈ 149 µM) | > 64 | 16 (≈ 74.7 µM) | > 64 |  |  |  |  |  |  |  | 
CC(C)=CC(=O)Nc1nnc(S(N)(=O)=O)s1 [CAI 0016] | 16 (≈ 61 µM) | 64 (≈ 244 µM) | 16 (≈ 61 µM) | 32 (≈ 122 µM) | 32 (≈ 122 µM) | 64 (≈ 244 µM) |  |  |  |  |  |  |  | 
NS(=O)(=O)c1nnc(NC(=O)C2CCCCC2)s1 [CAI 0022] | 4 (≈ 13.8 µM) | 32 (≈ 110 µM) | 2 (≈ 6.89 µM) | 64 (≈ 220 µM) | 4 (≈ 13.8 µM) | > 64 |  |  |  |  |  |  |  | 
NS(=O)(=O)c1nnc(NC(=O)CN2CCCCC2)s1 [CAI 0035] | 64 (≈ 210 µM) | > 64 | > 64 | > 64 | 64 (≈ 210 µM) | > 64 |  |  |  |  |  |  |  | 
CCCCCCC(=O)Nc1nnc(S(N)(=O)=O)s1 [CAI 0027] | 2 (≈ 6.84 µM) | 32 (≈ 109 µM) | 2 (≈ 6.84 µM) | 64 (≈ 219 µM) | 1 (≈ 3.42 µM) | 64 (≈ 219 µM) |  |  |  |  |  |  |  | 
CN1CCN(CC(=O)Nc2nnc(S(N)(=O)=O)s2)CC1 [CAI 0036] | 64 (≈ 200 µM) | > 64 | > 64 | > 64 | > 64 | > 64 |  |  |  |  |  |  |  | 
CCNc1nnc(S(N)(=O)=O)s1 [CAI 0032] | 64 (≈ 307 µM) | > 64 | > 64 | > 64 | > 64 | > 64 |  |  |  |  |  |  |  | 
CCN[C@H]1C[C@H](C)S(=O)(=O)c2sc(S(N)(=O)=O)cc21 [Dorzolamide] | 32 (≈ 98.6 µM) | > 64 | > 64 | > 64 | > 64 | > 64 |  |  |  |  |  |  |  | 
O=C(O)c1cn(C2CC2)c2cc(N3CCNCC3)c(F)cc2c1=O [Ciprofloxacin] |  |  |  |  |  |  |  |  |  |  |  |  |  | 300
NS(=O)(=O)c1nnc(NC(=O)CC2CCCCC2)s1 [CAI 0029] | 1 (≈ 3.29 µM) | 32 (≈ 105 µM) | 0.5 (≈ 1.64 µM) | > 64 | 2 (≈ 6.57 µM) | > 64 |  |  |  |  |  |  |  | 

Reference: patent US20220213047A1, “CARBONIC ANHYDRASE INHIBITORS FOR TREATMENT OF NEISSERIA GONORRHOEAE INFECTION” (Purdue Research Foundation, priority 2021, published 2022)
